Results reported in PubChem BioAssay AID248 (DTP/NCI, 2004).
“And” between values parts separate entries of the source, which are not always exact repeats. Identical values can stand only once. Inconclusive results and toxic doses are left out. Rule as the data show it: active = T/C of 150% or more; inactive = T/C below 125%.

System: L1210 leukemia ip in BDF1 mice, survival T/C
Assay: NCI In Vivo Anticancer Drug Screen. Data for tumor model L1210 Leukemia (intraperitoneal) in B6D2F1 (BDF1) mice
Conditions: endpoint: mean survival time, higher = longer survival
Summary of the method: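 Each compound was tested against a transplantable tumor grown in mice. The endpoint was survival, with treated animals benchmarked against vehicle controls as a simple ratio.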

[1] = dose: 100.0 mg/kg/injection, schedule: Q04DX003 (ip), vehicle: acetone
[2] = dose: 100.0 mg/kg/injection, schedule: Q01DX001 (ip), vehicle: saline
[3] = dose: 200.0 mg/kg/injection, schedule: Q01DX001 (ip), vehicle: saline
[4] = dose: 100.0 mg/kg/injection, schedule: Q04DX002 (ip), vehicle: Klucel (hydroxypropylcellulose) (HPC)
[5] = dose: 200.0 mg/kg/injection, schedule: Q04DX002 (ip), vehicle: Klucel (hydroxypropylcellulose) (HPC)
[6] = dose: 400.0 mg/kg/injection, schedule: Q04DX002 (ip), vehicle: Klucel (hydroxypropylcellulose) (HPC)
[7] = dose: 100.0 mg/kg/injection, schedule: Q04DX003 (ip), vehicle: saline with Tween-80
[8] = dose: 200.0 mg/kg/injection, schedule: Q01DX009 (ip), vehicle: saline with Tween-80
[9] = dose: 200.0 mg/kg/injection, schedule: Q04DX003 (ip), vehicle: saline with Tween-80
[10] = dose: 400.0 mg/kg/injection, schedule: Q04DX003 (ip), vehicle: saline with Tween-80
[11] = dose: 100.0 mg/kg/injection, schedule: Q01DX009 (ip), vehicle: Klucel (hydroxypropylcellulose) (HPC)
[12] = dose: 200.0 mg/kg/injection, schedule: Q01DX009 (ip), vehicle: Klucel (hydroxypropylcellulose) (HPC)
[13] = dose: 400.0 mg/kg/injection, schedule: Q01DX009 (ip), vehicle: Klucel (hydroxypropylcellulose) (HPC)
[14] = dose: 400.0 mg/kg/injection, schedule: Q01DX001 (ip), vehicle: saline
[15] = dose: 75.0 mg/kg/injection, schedule: Q01DX001 (ip), vehicle: saline
[16] = dose: 150.0 mg/kg/injection, schedule: Q01DX001 (ip), vehicle: saline
[17] = dose: 300.0 mg/kg/injection, schedule: Q01DX001 (ip), vehicle: saline
[18] = dose: 100.0 mg/kg/injection, schedule: Q01DX001 (ip), vehicle: carboxymethylcellulose (CMC)
[19] = dose: 200.0 mg/kg/injection, schedule: Q01DX001 (ip), vehicle: carboxymethylcellulose (CMC)
[20] = dose: 400.0 mg/kg/injection, schedule: Q01DX001 (ip), vehicle: carboxymethylcellulose (CMC)

Measured: T/C

COC(=O)C1=C(NC(=O)Nc2ccc([N+](=O)[O-])cc2)OC(C)(C)C1c1ccc(Cl)cc1 (stereo not drawn)
inactive: [1] 92 % of control | dose: 200.0 mg/kg/injection, schedule: Q04DX003 (ip), vehicle: acetone 97 % of control | dose: 400.0 mg/kg/injection, schedule: Q04DX003 (ip), vehicle: acetone 97 % of control

Cc1ccc(NC(=O)OCCCl)cc1
inactive: [2] 117 % of control | [3] 112 % of control

O=C(O)C(O)C(=O)O
inactive: dose: 50.0 mg/kg/injection, schedule: Q01DX009 (ip), vehicle: saline 95 % of control | dose: 100.0 mg/kg/injection, schedule: Q01DX009 (ip), vehicle: saline 89 % of control | dose: 100.0 mg/kg/injection, schedule: Q04DX003 (ip), vehicle: saline 103 % of control | dose: 200.0 mg/kg/injection, schedule: Q01DX009 (ip), vehicle: saline 92 % of control | dose: 200.0 mg/kg/injection, schedule: Q04DX003 (ip), vehicle: saline 100 % of control

O=[N+]([O-])c1ccc2cnn(CSP(=S)(c3ccccc3)c3ccccc3)c2c1
inactive: dose: 100.0 mg/kg/injection, schedule: Q01DX001 (ip), vehicle: other 93 % of control | dose: 200.0 mg/kg/injection, schedule: Q01DX001 (ip), vehicle: other 101 % of control | dose: 400.0 mg/kg/injection, schedule: Q01DX001 (ip), vehicle: other 101 % of control

O=C(COc1ccc(Cl)cc1Cl)Nc1ccc2ccccc2c1S(=O)(=O)O
inactive: dose: 25.0 mg/kg/injection, schedule: Q04DX002 (ip), vehicle: Klucel (hydroxypropylcellulose) (HPC) 112 % of control | dose: 50.0 mg/kg/injection, schedule: Q04DX002 (ip), vehicle: Klucel (hydroxypropylcellulose) (HPC) 98 % of control | [4] 94 % of control

Nc1nc(N)nc(-c2ccccc2N=NNc2ccc([N+](=O)[O-])cc2)n1
inactive: [4] 97 % of control | [5] 93 % of control | [6] 89 % of control

CN(C)c1ccc(NC(=O)Nc2cccc(Cl)c2)cc1
inactive: dose: 100.0 mg/kg/injection, schedule: Q01DX009 (ip), vehicle: saline with Tween-80 91 % of control | [7] 94 % of control | [8] 94 % of control | [9] 100 % of control | dose: 400.0 mg/kg/injection, schedule: Q01DX009 (ip), vehicle: saline with Tween-80 92 % of control | [10] 92 % of control

O=C(Nc1ccccn1)NC1CCCCC1
inactive: [11] 98 % of control | [12] 105 % of control | [13] 98 % of control

NC1(C(=O)O)CCCC2CCCCC21 (stereo not drawn)
inactive: [11] 100 % of control | [4] 93 % of control | [12] 96 % of control | [5] 93 % of control | [13] 91 % of control | [6] 96 % of control

N#Cc1nnn(-c2ccccc2)n1
inactive: dose: 25.0 mg/kg/injection, schedule: Q01DX009 (ip), vehicle: acetone 101 % of control | dose: 50.0 mg/kg/injection, schedule: Q01DX009 (ip), vehicle: acetone 111 % of control | dose: 50.0 mg/kg/injection, schedule: Q04DX003 (ip), vehicle: acetone 93 % of control | dose: 100.0 mg/kg/injection, schedule: Q01DX001 (ip), vehicle: acetone 99 % of control | [1] 88 % of control | dose: 200.0 mg/kg/injection, schedule: Q01DX001 (ip), vehicle: acetone 99 % of control

O=C1OCc2ccccc2C1O (stereo not drawn)
inactive: [2] 111 % of control | [3] 94 % of control | [14] 94 % of control

C=CS(=O)(=O)Cc1ccc(Cl)cc1
inactive: dose: 10.0 mg/kg/injection, schedule: Q04DX002 (ip), vehicle: Klucel (hydroxypropylcellulose) (HPC) 117 % of control | dose: 20.0 mg/kg/injection, schedule: Q04DX002 (ip), vehicle: Klucel (hydroxypropylcellulose) (HPC) 106 % of control | dose: 40.0 mg/kg/injection, schedule: Q04DX002 (ip), vehicle: Klucel (hydroxypropylcellulose) (HPC) 98 % of control

C[C@]12CC[C@H]3[C@@H](CC[C@]4(O)C[C@@H](O)CC[C@]34CO)[C@@]1(O)CC[C@@H]2C1=CC(=O)OC1
inactive: dose: 50.0 mg/kg/injection, schedule: Q01DX001 (ip), vehicle: saline 106 % of control | [2] 100 % of control | [3] 100 % of control

N/C(=N/O)c1cn(C2OC(CO)C(O)C2O)c2ncnc(NO)c12 (stereo not drawn)
inactive: dose: 12.5 mg/kg/injection, schedule: Q01DX009 (ip), vehicle: saline 121 % of control | dose: 25.0 mg/kg/injection, schedule: Q01DX009 (ip), vehicle: saline 86 % of control

CNC1CC(N)C(O)C(OC2OC(CO)C(O)C3OC4(OC(C(N)CO)C(O)C(O)C4O)OC23)C1O (stereo not drawn)
inactive: dose: 2.2 mg/kg/injection, schedule: Q01DX Z (ip), vehicle: saline 97 % of control | dose: 3.3 mg/kg/injection, schedule: Q01DX Z (ip), vehicle: saline 94 % of control | dose: 5.0 mg/kg/injection, schedule: Q01DX Z (ip), vehicle: saline 89 % of control | dose: 7.6 mg/kg/injection, schedule: Q01DX Z (ip), vehicle: saline 94 % of control

CCCCC(O)(CCCC)C(CC)CC
inactive: [7] 108 % of control | [9] 99 % of control | [10] 101 % of control

CCCSc1ncnc2nc[nH]c12
inactive: dose: 31.3 mg/kg/injection, schedule: Q01DX009 (ip), vehicle: saline 93 % of control and 100 % of control | dose: 62.5 mg/kg/injection, schedule: Q01DX009 (ip), vehicle: saline 97 % of control and 121 % of control | dose: 125.0 mg/kg/injection, schedule: Q01DX009 (ip), vehicle: saline 121 % of control | dose: 250.0 mg/kg/injection, schedule: Q01DX009 (ip), vehicle: saline 100 % of control

CC(C)(CBr)COC(=O)Nc1cccc2ccccc12
inactive: dose: 50.0 mg/kg/injection, schedule: Q01DX009 (ip), vehicle: saline with Tween-80 91 % of control | [8] 87 % of control

CCCCCC(=O)NNC(=O)CCCCC
inactive: [15] 91 % of control | [16] 91 % of control | [17] 94 % of control

COc1ccc(C)cc1NC(=O)Nc1ccc(SC)cc1
inactive: [11] 87 % of control | [12] 95 % of control | [13] 90 % of control

O=C1CNc2ccccc2N1
inactive: dose: 100.0 mg/kg/injection, schedule: Q04DX003 (ip), vehicle: Klucel (hydroxypropylcellulose) (HPC) 103 % of control | dose: 200.0 mg/kg/injection, schedule: Q04DX003 (ip), vehicle: Klucel (hydroxypropylcellulose) (HPC) 92 % of control | dose: 400.0 mg/kg/injection, schedule: Q04DX003 (ip), vehicle: Klucel (hydroxypropylcellulose) (HPC) 92 % of control

CCCc1nc2ccccc2c(=O)n1/N=C/c1ccsc1
inactive: dose: 100.0 mg/kg/injection, schedule: Q04DX003 (ip), vehicle: saline sonified 101 % of control | dose: 200.0 mg/kg/injection, schedule: Q04DX003 (ip), vehicle: saline sonified 94 % of control | dose: 400.0 mg/kg/injection, schedule: Q04DX003 (ip), vehicle: saline sonified 94 % of control

Cc1ccnc(NS(=O)(=O)c2ccc(N=Nc3c(N)n(C)c(=O)n(C)c3=O)cc2)n1
inactive: [18] 98 % of control | [19] 93 % of control | [20] 95 % of control

CC(C)(C)OC(=O)CCN1CC1
inactive: [15] 109 % of control | [16] 104 % of control

CC(=O)OC1C(C(=O)O)CC(C(=O)O)C1OC(C)=O (stereo not drawn)
inactive: dose: 88.0 mg/kg/injection, schedule: Q01DX001 (ip), vehicle: saline 88 % of control | [2] 108 % of control | dose: 133.0 mg/kg/injection, schedule: Q01DX001 (ip), vehicle: saline 98 % of control | [3] 98 % of control | [17] 98 % of control | [14] 106 % of control

Cc1nnc2ccnn2c1C
inactive: [2] 96 % of control | [3] 96 % of control | [14] 100 % of control

C/C=C/C(=O)Nc1cccc(C)c1C
inactive: [11] 93 % of control and 95 % of control | [12] 100 % of control | [13] 92 % of control

Cc1ccc(S(=O)(=O)N2CCc3ccccc3C=C2Br)cc1
inactive: [18] 100 % of control | [19] 102 % of control | [20] 112 % of control

O=C1NCCCN1C1OC(CO)C(O)C1O (stereo not drawn)
inactive: dose: 100.0 mg/kg/injection, schedule: Q01DX005 (ip), vehicle: saline 107 % of control | dose: 200.0 mg/kg/injection, schedule: Q01DX005 (ip), vehicle: saline 104 % of control
